According to patent US11994512B2, “Single-cell genomic methods to generate ex vivo cell systems that recapitulate in vivo biology with improved fidelity” (Massachusetts Institute of Technology, priority 2018, dated 2024):

Test system: intracellular proteome of ENR+CD and ENR organoids
Experiment: LC-MS/MS TMT proteomics of ENR+CD versus ENR organoids
Assay type: cell-based, C57BL/6 mice
Conditions: for change: up = enriched in ENR+CD, down = enriched in ENR, FDR<0.05 and log fold change cut-off
Source text: Because PCs are highly secretory, protein-rich cells, Applicants sought to assess the total intracellular proteome between conditions through liquid chromatography mass spectrometry (LC-MS/MS)-based proteomics. Applicants quantified relative protein abundance across eight samples using isobaric mass tag labeling from four ENR and four ENR+CD samples (M1-1 through M2-2, first digit denotes biological donor, second digit denotes technical replicate) (FIG. 3A). Samples were processed and analyzed in a single 10-plex by LC-MS/MS (FIG. 9A).
To affirm the reproducibility of the associated proteins in the ENR+CD-enriched proteome, Applicants performed relative quantification within differentiation sets.
Mass spectrometry proteomics sample preparation, sequencing, and quantification. Organoid cell pellets were isolated from Matrigel with mechanical dissociation and washed (cold PBS 5X) to remove residual extracellular protein. Proteins were extracted from cell pellets with 8 M urea (Sigma), reduced with 5 mM DTT (Thermo Fisher Pierce) for 45 minutes, alkylated with 10 mM IAA (Sigma) for 45 minutes in the dark, and double digested with both Lysyl Endopeptidase “LysC” (Wako) and trypsin (Promega) overnight at RT. A small aliquot of cellular lysate was removed from each sample for protein quantification via the Pierce™ BCA Protein Assay Kit (Pierce). After proteolytic digestion, the samples were quenched using formic acid to a final concentration of 1.0% and subsequently desalted on 10 mg OASIS HLB solid phase columns (Waters).
The peptides were labeled with TMT-10 isobaric mass tag reagent according to manufacturer's instructions (ThermoFisher Scientific). The peptides were labeled at a 1:8 ratio of peptide to TMT reagent, followed by 1-hour incubation at RT with bench top shaking at 850 rpm. After incubation, a […] of labeled tryptic peptide was removed from each labeled condition, desalted with C18 stage tips, and analyzed via LC-MS/MS using a Thermo Fisher Q Exactive Plus Hybrid Mass Spectrometer (QE-Plus) coupled to a Thermo Fisher EASY-nLC 1000 liquid chromatograph to ensure isobaric label incorporation >95%. An additional 1.0 μg of labeled tryptic peptide was removed from each channel, mixed together, desalted on a C18 stage tip, and analyzed via LC-MS to ensure equal relative protein loads. During these quality control steps, the labeled peptides were stored, unquenched at −80° C.

[1] = ENR+CD versus ENR organoids, sample pairs in aggregate (n=4, 2 technical replicates from two biological donors)
[2] = protein abundance ratio ENR+CD versus ENR organoids, sample pair M1-1, LC-MS/MS TMT proteomics
[3] = protein abundance ratio ENR+CD versus ENR organoids, sample pair M1-2, LC-MS/MS TMT proteomics
[4] = protein abundance ratio ENR+CD versus ENR organoids, sample pair M2-1, LC-MS/MS TMT proteomics
[5] = protein abundance ratio ENR+CD versus ENR organoids, sample pair M2-2, LC-MS/MS TMT proteomics
[6] = protein abundance, ENR+CD versus ENR organoids, aggregate of the four sample pairs
[7] = protein abundance, ENR+CD versus ENR organoids, replicate M1-1, log2 ratio
[8] = protein abundance, ENR+CD versus ENR organoids, replicate M1-2, log2 ratio
[9] = protein abundance, ENR+CD versus ENR organoids, replicate M2-1, log2 ratio
[10] = protein abundance, ENR+CD versus ENR organoids, replicate M2-2, log2 ratio

| Substance | Average logFC [1] | M1-1 Log2 Median Normalized [2] | M1-2 Log2 Median Normalized [3] | M2-1 Log2 Median Normalized [4] | M2-2 Log2 Median Normalized [5] | change | Average logFC [6] | M1-1 Log2 Median Normalized [7] | M1-2 Log2 Median Normalized [8] | M2-1 Log2 Median Normalized [9] | M2-2 Log2 Median Normalized [10] |
| --- | --- | --- | --- | --- | --- | --- | --- | --- | --- | --- | --- |
| Q4ACU6 | −1.637 | −1.525 | −1.512 | −1.6745 | −1.835 | down |  |  |  |  |  |
| Q9JMC3 | 1.386 | 1.758 | 0.805 | 1.3105 | 1.67 | up |  |  |  |  |  |
| Q91VE6 | −1.411 | −1.492 | −1.242 | −1.0275 | −1.884 | down |  |  |  |  |  |
| P56382 (MVAYWRQAGLSYIRFSQICAKAVRDALKTEFKANAEKTSGSSIKIVKVSKKE; full-length; UniProt P56382 1-52, looked up) |  |  |  |  |  | down | −2.387 | −1.051 | −3.179 | −1.3955 | −3.924 |
| Q91WA1 | −1.673 | −1.929 | −0.883 | −1.5765 | −2.303 | down |  |  |  |  |  |
| Q8BRB7 | −1.345 | −0.966 | −1.077 | −1.3755 | −1.962 | down |  |  |  |  |  |
| P07310 |  |  |  |  |  | down | −2.279 | −1.418 | −3.14 | −2.0165 | −2.541 |
| P84102 (MTRGNQRELARQKNMKKQSDSVKGKRRDDGLSAAARKQRDSEIMQQKQKKANEKKEEPK; full-length; UniProt P84102 1-59, looked up) |  |  |  |  |  | up | 1.286 | 1.517 | 0.63 | 2.2205 | 0.775 |
| P09405 |  |  |  |  |  | down | −1.217 | −1.377 | −0.807 | −1.0695 | −1.615 |
| O70514 |  |  |  |  |  | down | −1.202 | −1.413 | −1.091 | −1.0895 | −1.216 |
| Q8R0T2 | −1.493 | −1.662 | −0.647 | −0.8365 | −2.825 | down |  |  |  |  |  |
| Q9QWG7 | −1.142 | −1.032 | −1.575 | −1.8475 | −0.115 | down |  |  |  |  |  |
| P97479 |  |  |  |  |  | down | −1.162 | −1.135 | −1.101 | −1.2195 | −1.191 |
| Q6ZWR6 | 1.168 | 1.167 | 0.703 | 1.1985 | 1.566 | up |  |  |  |  |  |
| Q9D937 | −1.943 | −2.074 | −1.942 | −1.0675 | −2.286 | down |  |  |  |  |  |
| P02798 |  |  |  |  |  | down | −2.904 | −2.904 | −2.907 | −2.2505 | −3.047 |
| P97328 |  |  |  |  |  | down | −1.236 | −1.151 | −2.263 | −1.4115 | −0.12 |

| Substance | Average logFC [1] | M1-1 Log2 Median Normalized [2] | M1-2 Log2 Median Normalized [3] | M2-1 Log2 Median Normalized [4] | M2-2 Log2 Median Normalized [5] | change | Average logFC [6] | M1-1 Log2 Median Normalized [7] | M1-2 Log2 Median Normalized [8] | M2-1 Log2 Median Normalized [9] | M2-2 Log2 Median Normalized [10] |
| --- | --- | --- | --- | --- | --- | --- | --- | --- | --- | --- | --- |
| Q80TR4 | 1.235 | 1.316 | 1.587 | 1.2175 | 0.818 | up |  |  |  |  |  |
| P07309 |  |  |  |  |  | up | 1.249 | 1.309 | 0.951 | 1.2255 | 1.511 |
| Q9R0M0 | 1.229 | 1.297 | 0.675 | 1.2135 | 1.732 | up |  |  |  |  |  |
| Q8BHB9 | −1.288 | −1.576 | −1.245 | −1.3195 | −1.01 | down |  |  |  |  |  |
| P47968 |  |  |  |  |  | down | −1.292 | −0.958 | −1.223 | −1.2935 | −1.827 |
| P18894 |  |  |  |  |  | down | −1.376 | −1.222 | −1.706 | −1.8305 | −0.745 |
| P56716 |  |  |  |  |  | up | 1.303 | 0.494 | 1.733 | 1.3015 | 1.329 |
| O70472 |  |  |  |  |  | up | 1.172 | 1.419 | 0.87 | 1.3875 | 1.011 |
| B9EJA2 |  |  |  |  |  | down | −1.156 | −1.439 | −1.031 | −0.9535 | −1.2 |
| Q80SU7 | −1.224 | −1.279 | −0.758 | −1.2235 | −1.338 | down |  |  |  |  |  |
| Q03172 |  |  |  |  |  | up | 1.206 | 0.832 | 1.656 | 1.2325 | 1.102 |
| Q60997 | −1.332 | −1.643 | −0.987 | −1.1555 | −1.543 | down |  |  |  |  |  |
| Q60936 | −1.292 | −1.293 | −1.012 | −1.8255 | −1.133 | down |  |  |  |  |  |
| Q7JJ13 | −1.145 | −1.243 | −0.748 | −0.9235 | −1.666 | down |  |  |  |  |  |
| Q52KR3 | −1.393 | −2.118 | −0.268 | −1.3905 | −1.67 | down |  |  |  |  |  |
| Q9CPS7 | −1.227 | −1.383 | −1.226 | −0.9215 | −1.327 | down |  |  |  |  |  |
| Q9ET22 | 1.277 | 1.451 | 1.159 | 1.3455 | 1.153 | up |  |  |  |  |  |
